In PubChem BioAssay (NCI) one finds TGI data, which are given here for ten molecules.

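Cells were grown in 96-well plates and exposed to each compound for 48 hours at five concentrations; endpoints were interpolated linearly between bracketing concentrations, or set to the highest concentration if not reached. TGI marks complete inhibition of growth.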

Test in all cases: NCI anticancer screen, dose series, 48 h
Assay [1] relates to LOX IMVI melanoma.
Assay [2] concerns SK-OV-3 ovarian.
Assay [3] deals with SN12C renal.
Assay [4] concerns SF-295 CNS.
The subject of assay [5] is TK-10 renal.
In assay [6] the test system is NCI/ADR-RES ovarian.
Assay [7] concerns A498 renal.
Assay [8] concerns MALME-3M melanoma.
Assay [9] deals with OVCAR-3 ovarian.
Assay [10] has as its system SK-MEL-5 melanoma.
Assay [11] deals with HL-60(TB) leukemia.
In assay [12] the test system is UACC-257 melanoma.
The subject of assay [13] is T-47D breast.

Turning to `CCOC(=O)c1cc(C2CCN(c3ccccc3)C2=O)c(/C(O)=C/C(C)=O)[nH]1` (stereo not given), the TGI in assay [1], in assay [2], in assay [3], in [4], in assay [5] and in assay [6] was more than 100 µM in each case. For the same molecule, the TGI in assay [7] was more than 100 µM; in assay [8] it was more than 100 µM; in assay [9], more than 100 µM; in [10] it was more than 100 µM; in assay [11], 76 µM; in [12], more than 100 µM. In [13], the TGI was more than 100 µM.

Take `Cc1cc(NC2=CC(=O)C(=O)c3ccccc32)no1`: the TGI came to 4.06 µM in assay [1]; 40.3 µM in [2]; 7.1 µM in assay [3]; 21.6 µM in [4]; 63.4 µM in assay [5]; 15.6 µM in assay [6]. For the same molecule, the TGI in assay [7] is 33.1 µM; in assay [8], 5.92 µM; in assay [9], 14.1 µM; in assay [10], 6.57 µM; in assay [11], more than 29.6 µM; in [12], 16.7 µM. Further, the TGI in assay [13] turned out to be 32.7 µM.

On to `N#CC(c1ccccc1)N(CCCCCCN(C(=O)c1ccccc1)C(C#N)c1ccccc1)C(=O)c1ccccc1` (stereo not given), for which the TGI was more than 100 µM in assay [1]; more than 100 µM in assay [2]; more than 100 µM in [3]; more than 100 µM in [4]; 62.6 µM in [5]; 51.2 µM in assay [6]. In addition, the TGI in [7] is 55.9 µM; in [8], more than 100 µM; in assay [9], more than 100 µM; in assay [10] it was 32.9 µM; in assay [11], more than 100 µM; in [12], 63.9 µM. In assay [13], the TGI is more than 100 µM.

For `CCOC1CN=C(Nc2cccc3ccccc23)S1` (stereo not given), the TGI in assay [1], in assay [2], in assay [3], in assay [4], in assay [5] and in [6] was more than 10 µM in each case. Further, the TGI in assay [7], in assay [8], in assay [9], in assay [10], in assay [11] and in assay [12] was more than 10 µM each time. The TGI in assay [13] is more than 10 µM.

For the molecule `O=C1C2C(C(=O)N1c1ccccc1)C1(c3ccccc3)CCC2(C(=O)c2ccccc2)O1` (stereo not given), the TGI in assay [1], in assay [2], in [3], in [4], in assay [5] and in assay [6] was more than 10 µM in each case. For the same molecule, the TGI in assay [7], in [8], in assay [9], in assay [10], in assay [11] and in [12] was more than 10 µM each time. This molecule displayed a TGI in assay [13] of more than 10 µM.

As to `CN(C)C(C1=C(O)C(c2ccccc2)N(c2ccccc2)C1=O)N1CCOCC1` (stereo not given), the TGI in assay [1], in assay [2], in assay [3], in assay [4], in [5] and in assay [6] was more than 10 µM each time. Moreover, the TGI in [7], in [8], in [9], in assay [10], in [11] and in assay [12] was more than 10 µM in each case. In addition, the TGI in assay [13] was more than 10 µM.

Take `Cc1ccc(CC2(C(=O)O)Cc3ccc(C)cc3C2)cc1` (stereo not given): the TGI in assay [1], in assay [2], in assay [3], in [4], in assay [5] and in assay [6] was more than 100 µM throughout. In addition, the TGI in assay [7], in assay [8], in assay [9], in assay [10], in assay [11] and in [12] was more than 100 µM throughout. In assay [13], the TGI was more than 100 µM.

Turning to `CC[C@]12C=CCN3CC[C@@]4(c5cc(N=O)c(OC)cc5N(C)[C@H]4[C@@](O)(C(=O)OC)[C@@H]1OC(C)=O)[C@@H]32`, the TGI in [1], in assay [2], in assay [3], in assay [4], in [5] and in assay [6] was more than 100 µM throughout. For the same molecule, the TGI in assay [7], in assay [8], in [9], in [10], in assay [11] and in assay [12] was more than 100 µM each time. For the same molecule, the TGI in [13] was more than 100 µM.

As for `CN1C(=O)C2(C)SC1(c1ccccc1)C1C(=O)N(c3ccccc3)C(=O)C12` (stereo not given), the TGI in [1], in assay [2], in assay [3], in assay [4], in [5] and in assay [6] was more than 100 µM in each case. Also, the TGI in assay [7] is more than 100 µM; in assay [8], more than 100 µM; in [9] it was more than 100 µM; in assay [10], more than 100 µM; in assay [11], more than 100 µM; in [12] it was 93.3 µM. In addition, in assay [13], the TGI is more than 100 µM.

`CNC(=O)C(C)NC(=O)C(Cc1ccccc1)NC(=O)c1ccccc1` (stereo not given): the TGI in assay [1], in assay [2], in assay [3], in [4], in [5] and in assay [6] was more than 100 µM each time. The TGI in assay [7], in assay [8], in assay [9], in assay [10], in [11] and in assay [12] was more than 100 µM in each case. Besides, in [13], the TGI was more than 100 µM.
